Test systems include A549 NSCLC; BT-549 breast; EKVX NSCLC; HCT-15 colon; K-562 leukemia; KM12 colon; MCF7 breast; MDA-MB-231 breast; SK-OV-3 ovarian; SR leukemia.
What all share (assay): NCI anticancer screen, dose series, 48 h

Here are results for twelve molecules from PubChem BioAssay (NCI).

Several values for one entry are separate records, joined by “and”; a condition that tells them apart may be missing. Identical values can stand only once.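 Grown in 96-well plates, cells were treated for 48 hours with each compound at five concentrations. Insufficient inhibition: endpoint recorded as highest concentration tested. Here, GI50 denotes the concentration required for 50% inhibition of growth. TGI marks complete inhibition of growth.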

Turning to `CCCn1cnc2c(SCc3ccccc3)nc(N)nc21`, the GI50 was 77.8 µM in the assay with A549 NSCLC; 51.9 µM in the assay on BT-549 breast; 67.3 µM with EKVX NSCLC; 37.8 µM in the assay on HCT-15 colon; 56.8 µM in the assay with K-562 leukemia; more than 100 µM with KM12 colon. Moreover, the GI50 in the assay with MCF7 breast is more than 100 µM; with MDA-MB-231 breast it was more than 100 µM; with SK-OV-3 ovarian, more than 100 µM; with SR leukemia it was 49.6 µM. For the same molecule, the TGI with A549 NSCLC, with BT-549 breast, in the assay with EKVX NSCLC, with HCT-15 colon, with K-562 leukemia and with KM12 colon was more than 100 µM throughout. Also, the TGI in the assay on MCF7 breast, in the assay with MDA-MB-231 breast, in the assay with SK-OV-3 ovarian and in the assay with SR leukemia was more than 100 µM each time.
For the molecule `CN(C)C(=O)SC1=C(c2c(Cl)cccc2Cl)C(=O)c2ccccc21`, the GI50 was 24.8 µM with A549 NSCLC; 9.78 µM in the assay with BT-549 breast; 17.4 µM in the assay with EKVX NSCLC; 2.2 µM in the assay on HCT-15 colon; 2.98 µM in the assay on K-562 leukemia; 14.8 µM in the assay on KM12 colon. In addition, the GI50 is 2.51 µM with MCF7 breast, 5.6 µM in the assay on MDA-MB-231 breast, 18.6 µM with SK-OV-3 ovarian and 3.56 µM in the assay with SR leukemia. Also, the TGI was more than 55.7 µM in the assay with A549 NSCLC; 23.5 µM with BT-549 breast; 40.3 µM in the assay with EKVX NSCLC; 6.28 µM in the assay with HCT-15 colon; 14.8 µM in the assay on K-562 leukemia; 28.6 µM in the assay on KM12 colon. The TGI in the assay with MCF7 breast was 7.73 µM; with MDA-MB-231 breast it was 13.7 µM; with SK-OV-3 ovarian, 36.5 µM; with SR leukemia, 88.9 µM.
As for `CC(=O)Oc1ccc(C2(c3ccc(OC(C)=O)cc3)C(=O)Nc3ccccc32)cc1`, the GI50 in the assay with A549 NSCLC was 33.8 µM and 42.9 µM; in the assay with BT-549 breast, 0.064 µM and 0.158 µM; with EKVX NSCLC it was 8.49 µM and 22.4 µM; in the assay with HCT-15 colon, 20.5 µM and 25.8 µM; in the assay with K-562 leukemia, 17.3 µM and 42.2 µM; with KM12 colon, 12.7 µM and 12.6 µM. Besides, the GI50 in the assay with MCF7 breast was 0.229 µM and 0.278 µM; in the assay on MDA-MB-231 breast, 25.6 µM and 37.8 µM; in the assay on SK-OV-3 ovarian, 31.8 µM and 58.9 µM; in the assay on SR leukemia, 25.1 µM and 24.2 µM. Further, the TGI with A549 NSCLC was more than 100 µM; in the assay on BT-549 breast it was 0.524 µM and 0.733 µM; with EKVX NSCLC, more than 100 µM; in the assay with HCT-15 colon, more than 100 µM; in the assay with K-562 leukemia it was more than 87.3 µM; in the assay on KM12 colon it was > 62.7 µM and 51.7 µM. For the same molecule, the TGI in the assay with MCF7 breast was more than 49.3 µM; with MDA-MB-231 breast it was more than 100 µM; with SK-OV-3 ovarian, more than 100 µM; in the assay with SR leukemia, more than 100 µM.
Take `CC(C)(C)[Si](C)(C)OCC1OC(n2cnc3c(N)ncnc32)C(O)C1O` (configuration not stated): the TGI in the assay with A549 NSCLC, with BT-549 breast, with EKVX NSCLC, with HCT-15 colon, with K-562 leukemia and with KM12 colon was more than 100 µM in each case. Further, the TGI with MCF7 breast, in the assay with MDA-MB-231 breast, with SK-OV-3 ovarian and in the assay with SR leukemia was more than 100 µM each time.
For the molecule `Nc1ccn([C@@H]2C(F)=C(CO)[C@@H](O)[C@H]2O)c(=O)n1`, the GI50 was 0.42 µM in the assay with A549 NSCLC; 23.5 µM in the assay with BT-549 breast; 26.8 µM in the assay on EKVX NSCLC; 0.545 µM with HCT-15 colon; 0.781 µM with K-562 leukemia; 0.65 µM in the assay on KM12 colon. Besides, the GI50 is 0.362 µM in the assay with MCF7 breast, 2.73 µM in the assay on MDA-MB-231 breast, 4.95 µM in the assay with SK-OV-3 ovarian and 0.443 µM in the assay on SR leukemia. Besides, the TGI in the assay on A549 NSCLC, with BT-549 breast, in the assay with EKVX NSCLC, in the assay on HCT-15 colon, in the assay with K-562 leukemia and in the assay with KM12 colon was more than 100 µM throughout. For the same molecule, the TGI with MCF7 breast, in the assay with MDA-MB-231 breast, in the assay with SK-OV-3 ovarian and with SR leukemia was more than 100 µM in each case.
Regarding `COc1ccccc1/C=C\C(=O)c1ccccc1`, the GI50 in the assay with A549 NSCLC was 19.5 µM; with BT-549 breast it was 11 µM; with EKVX NSCLC, 3.82 µM; in the assay with HCT-15 colon, 4.8 µM; with K-562 leukemia it was 2.57 µM; in the assay with KM12 colon, 2.79 µM. Also, the GI50 was 1.92 µM with MCF7 breast, 12.5 µM in the assay with MDA-MB-231 breast, 13.7 µM in the assay on SK-OV-3 ovarian and 2.77 µM in the assay with SR leukemia. Also, the TGI in the assay with A549 NSCLC is 41.9 µM; with BT-549 breast, 23.3 µM; with EKVX NSCLC, 18.3 µM; with HCT-15 colon it was 19.3 µM; in the assay with K-562 leukemia, 13.9 µM; with KM12 colon, 6.32 µM. Also, the TGI turned out to be 12.6 µM in the assay with MCF7 breast, 30 µM in the assay with MDA-MB-231 breast, 26.5 µM in the assay on SK-OV-3 ovarian and 18 µM in the assay with SR leukemia.
In the case of `COc1ccc(C(=O)C[C@]2(O)C(=O)Nc3c(Cl)ccc(Cl)c32)cc1`, the GI50 with A549 NSCLC is 0.766 µM; in the assay with BT-549 breast, 0.59 µM; in the assay on EKVX NSCLC, 0.892 µM; in the assay on HCT-15 colon it was 0.35 µM; in the assay with K-562 leukemia it was 0.258 µM; in the assay with KM12 colon, 0.39 µM. The GI50 in the assay on MCF7 breast was 0.383 µM; in the assay with MDA-MB-231 breast, 0.801 µM; in the assay with SK-OV-3 ovarian, 1.89 µM; with SR leukemia, 0.243 µM. For the same molecule, the TGI is more than 100 µM in the assay with A549 NSCLC; more than 72.9 µM in the assay on BT-549 breast; more than 100 µM with EKVX NSCLC; more than 100 µM in the assay on HCT-15 colon; more than 100 µM in the assay with K-562 leukemia; more than 40.1 µM in the assay on KM12 colon. Besides, the TGI in the assay with MCF7 breast, in the assay with MDA-MB-231 breast, with SK-OV-3 ovarian and with SR leukemia was more than 100 µM in each case.
With `Cc1cc(NC(=O)NC(=O)c2ccccc2N(C)C)ccc1Oc1ncc(Br)cn1`, the GI50 in the assay on A549 NSCLC is 0.584 µM; in the assay with K-562 leukemia, 0.21 µM; in the assay on SR leukemia it was 0.135 µM. For the same molecule, the TGI was more than 63.1 µM in the assay with A549 NSCLC; more than 46.4 µM with BT-549 breast; more than 68.1 µM with EKVX NSCLC; more than 68.1 µM with HCT-15 colon; 27.3 µM in the assay on K-562 leukemia; more than 38 µM with KM12 colon. Moreover, the TGI came out at 29.2 µM in the assay with MCF7 breast, 52.5 µM in the assay on MDA-MB-231 breast and 16.8 µM with SK-OV-3 ovarian.
For `Cc1cc(=O)oc2cc(OCCn3c(C)nn(-c4ccc(Cl)cc4)c3=O)ccc12`, the GI50 in the assay on A549 NSCLC is 6.07 µM; with BT-549 breast, 16.5 µM; in the assay on EKVX NSCLC, more than 100 µM; with HCT-15 colon it was 3.2 µM; with K-562 leukemia it was 1.29 µM; in the assay on KM12 colon it was 1.66 µM. Also, the GI50 in the assay with MCF7 breast was 2.7 µM; in the assay with MDA-MB-231 breast it was 4.53 µM; in the assay on SK-OV-3 ovarian it was 3.36 µM; in the assay on SR leukemia, 0.497 µM. Further, the TGI in the assay on A549 NSCLC was more than 100 µM; in the assay with BT-549 breast it was 99.4 µM; in the assay with EKVX NSCLC it was more than 100 µM; in the assay with HCT-15 colon, more than 100 µM; in the assay on K-562 leukemia, more than 100 µM; in the assay on KM12 colon, more than 100 µM. For the same molecule, the TGI in the assay with MCF7 breast was more than 100 µM; in the assay with MDA-MB-231 breast, more than 100 µM; in the assay on SK-OV-3 ovarian, 48.8 µM; in the assay with SR leukemia, 6.67 µM.
Take `COc1ccc(-c2nc3c(c(=O)n2C(C)=O)C(c2ccc(Cl)cc2)c2sc4c(Cl)cccc4c2O3)cc1` (configuration not stated): the GI50 with A549 NSCLC is 0.625 µM; in the assay with BT-549 breast, 0.355 µM; with EKVX NSCLC, 0.71 µM; with HCT-15 colon, 0.301 µM; in the assay with K-562 leukemia, 0.26 µM; with KM12 colon it was 0.349 µM. Further, the GI50 in the assay with MCF7 breast is 0.151 µM; with MDA-MB-231 breast, 0.589 µM; with SK-OV-3 ovarian it was 0.349 µM; in the assay on SR leukemia it was 0.354 µM. Besides, the TGI in the assay with A549 NSCLC is 2.2 µM; with BT-549 breast it was 2.07 µM; with EKVX NSCLC, 4.74 µM; with HCT-15 colon, 1.66 µM; in the assay on K-562 leukemia, 2.7 µM; in the assay with KM12 colon, 1.91 µM. Further, the TGI in the assay on MCF7 breast was 1.37 µM; in the assay with MDA-MB-231 breast it was 2.43 µM; with SK-OV-3 ovarian, 2.09 µM; in the assay with SR leukemia, 5.05 µM.
As for `CCCCCCCCCCCCCCCCS(=O)(=O)c1ccc(NN)cc1`, the TGI in the assay on A549 NSCLC, with BT-549 breast, with EKVX NSCLC, in the assay on HCT-15 colon, in the assay on K-562 leukemia and in the assay with KM12 colon was more than 10 µM throughout. The TGI with MCF7 breast, in the assay with MDA-MB-231 breast, in the assay with SK-OV-3 ovarian and with SR leukemia was more than 10 µM throughout.
`C=CC(=O)Nc1cccc(Nc2nc(Nc3ccc(OCCOC(F)F)cc3)ncc2F)c1`: the GI50 in the assay on A549 NSCLC is 3.56 µM; with BT-549 breast, 1.36 µM; in the assay with EKVX NSCLC, 4.3 µM; with HCT-15 colon, 1.97 µM; in the assay on K-562 leukemia, 3.07 µM; with KM12 colon, 3.57 µM. The GI50 in the assay with MCF7 breast was 3 µM; with MDA-MB-231 breast it was 5.02 µM; in the assay with SK-OV-3 ovarian it was 0.706 µM; in the assay with SR leukemia it was 2.88 µM. Moreover, the TGI was 20.2 µM in the assay with A549 NSCLC; 11.6 µM in the assay with BT-549 breast; more than 100 µM with EKVX NSCLC; more than 100 µM in the assay on HCT-15 colon; more than 100 µM with K-562 leukemia; 17.2 µM in the assay on KM12 colon. The TGI in the assay with MCF7 breast was 41.2 µM; with MDA-MB-231 breast, 51.1 µM; in the assay on SK-OV-3 ovarian it was 3.34 µM; in the assay with SR leukemia, more than 100 µM.
